Reference: US7326727B2, “Furanthiazole derivatives as heparanase inhibitors” (Oxford Glycosciences (UK) Ltd., priority 2002, dated 2008)

Tests used:
human heparanase = target: T1, human heparanase (Homo sapiens, UniProt Q9Y251); assay: Heparanase assay (bFGF binding to heparan sulphate, 96-well plate); format: biochemical; details: 2 h at 37° C., pH 5.5, read-out: Inhibition of Heparanase (IC50)
T1 sequence (Q9Y251 158-543 limits assumed): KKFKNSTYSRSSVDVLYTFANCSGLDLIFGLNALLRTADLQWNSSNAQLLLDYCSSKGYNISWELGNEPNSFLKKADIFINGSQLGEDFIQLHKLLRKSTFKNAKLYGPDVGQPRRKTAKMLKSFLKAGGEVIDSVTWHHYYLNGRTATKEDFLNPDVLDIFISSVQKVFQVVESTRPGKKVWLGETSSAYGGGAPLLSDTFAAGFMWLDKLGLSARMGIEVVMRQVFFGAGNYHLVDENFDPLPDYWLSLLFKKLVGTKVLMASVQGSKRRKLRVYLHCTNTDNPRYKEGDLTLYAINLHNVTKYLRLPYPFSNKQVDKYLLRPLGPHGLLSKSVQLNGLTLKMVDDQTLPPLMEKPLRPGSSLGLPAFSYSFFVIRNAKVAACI
T1 sequence (Q9Y251 36-109 limits assumed): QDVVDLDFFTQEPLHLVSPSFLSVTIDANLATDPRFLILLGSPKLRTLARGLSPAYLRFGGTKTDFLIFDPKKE
Procedure: Heparanase assay: The assay is based upon the use of the specific binding of basic fibroblast growth factor (bFGF) to heparan sulphate. Heparan sulphate can be detected via binding of bFGF using a horse radish peroxidase-conjugated bFGF antibody.
Nunc Maxisorp 96-well plates are coated for 16 h at RT with 100 μl/well 0.04 mg/ml heparan sulphate in PBS. The wells are then aspirated and blocked for 1 h with 200 μl/well 1% BSA-PBS. Following five washes with 0.01% BSA, 0.05% Tween20 PBS (wash buffer), 100 μl of recombinant human basic FGF (90 ng/ml in 0.1% BSA/PBS) is added per well and the plate is incubated at room temperature for 1 h.
After a further five washes with the wash buffer, 10 μl of test compound (in 10% DMSO) and 90 μl of human heparanase in 100 mM Sodium acetate, 5 mM CaCl2, pH 5.5 are added to each well and the plate incubated for 2 h at 37° C. The wells are washed again with wash buffer and 100 μl of bFGF antibody-horse radish peroxidase conjugate added. The plate is incubated at room temperature for 1 h and washed again five times with wash buffer. 100 μl of TMB peroxidase substrate is added and the colour allowed to develop for 10 min. The reaction is stopped with 50 μl 1M H2SO4 and the colour read at 450 nm on a plate reader.

human endothelial cells = assay: Angiogenesis assay (AngioKit, tubule formation by PECAM-1 staining); format: cell-based; details: Endothelial cell, 264 h, AngioKit co-culture, tubule formation on day 11, PECAM-1 staining relative to untreated control
Description: Angiogenesis Assay: A commercial angiogenesis assay for analysing the angiogenic or anti-angiogenic properties of test compounds (AngioKit catalogue no. ZHA-1000, TCS CellWorks Ltd, Buckingham, U.K) was used. In this assay, human endothelial cells were co-cultured with other human cells in a specifically designed medium. The endothelial cells initially form small islands within the culture matrix. They subsequently proliferate and then enter a migratory phase during which they move through the matrix to form threadlike tubule structures. These gradually join up (by 12-14 days) to form networks of […] tubules which closely resemble a capillary bed structure. These tubules stain positive for von Willebrand's Factor, Platelet Endothelial Cell Adhesion Molecule-1 (PECAM-1 or CD31) and Intercellular Adhesion Molecule-2 (ICAM-2).
The assay is supplied as growing cultures at the earliest stage of tubule formation in a 24 well plate format. It is designed so that test compounds and conditioned media can be added to the cultures within individual wells. The resulting effect on tubule formation can then be monitored. Positive and negative test agents are provided in the kit, e.g. Vascular Endothelial Growth Factor (VEGF) and sumarin. All reagents were included as part of the kit and the assay was performed according to the protocol supplied by TCS CellWorks Ltd. Briefly, on day 1, fresh growth medium, medium plus control agent or medium plus test compound was added to the cells and the cultures were incubated at 37° C., 5% CO2. […] The specified medium was changed at days 4, 7 and 9 and the cells were monitored for growth. On day 11, the cells were washed with Dulbecco's Phosphate-Buffered Saline (PBS) and fixed using 70% ethanol (−20° C.) for 30 min at room temperature. After fixing, the cells were washed and treated with blocking buffer, 1% BSA in PBS. The cells were stained for PECAM-1 on the same day, following standard immunohistochemistry procedures well known to those skilled in the art, using mouse anti-human CD31 as the primary antibody and a goat anti-mouse IgG alkaline […] conjugate. Tubule formation was quantitatively assessed by measuring PECAM-1 positive staining using the image analysis program “Matrox inspector” to evaluate the percentage tubule staining relative to an untreated control.

IC50 (human heparanase) [nM] | Compound | IC50 (human endothelial cells) [nM]
– | O=C(O)Cc1nc(-c2ccc(-c3ccc(NC(=O)c4ccc(OC(F)(F)F)cc4)cc3)o2)cs1 [Example 4] | 200
– | O=C(O)Cc1nc(-c2ccc(-c3ccc(NC(=O)/C=C/c4ccc(Br)cc4)cc3Cl)o2)cs1 [Example 5, 2-[4-[5-[2-Chloro-4-[3-(4-bromo)phenylacryloylamino]phenyl]furan-2-yl]-1,3-thiazol-2-yl]acetic acid] | 1000
– | O=C(O)Cc1nc(-c2ccc(-c3ccc(NC(=O)/C=C/c4ccc(Cl)cc4Cl)cc3Cl)o2)cs1 [Example 6, 2-[4-[5-[2-Chloro-4-[3-(2,4-dichloro)phenylacryloylamino]phenyl]furan-2-yl]1,3-thiazol-2-yl]acetic acid] | 500
– | O=C(O)Cc1nc(-c2ccc(-c3ccc(NC(=O)C=Cc4ccccc4)cc3Cl)o2)cs1 [Example 8, 2-[4-[5-[2-Chloro-4-(3-phenylacryloylamino)phenyl]furan-2-yl]-1,3-thiazol-2-yl]acetic acid] | 15000
400 | O=C(O)Cc1nc(-c2ccc(-c3ccc(NC(=O)c4cc5ccccc5s4)cc3Cl)o2)cs1 [Example 11, 2-[4-[5-[2-Chloro-4-[(benzothiophene-2-carbonyl)amino]phenyl]furan-2-yl]-1,3-thiazol-2-yl]acetic acid] | 20000
– | O=C(O)Cc1nc(-c2ccc(-c3ccc(NC(=O)c4ccc(Cl)c(Cl)c4)cc3Cl)o2)cs1 [Example 18, 2-[4-[5-[2-Chloro-4-[(3,4-dichlorophenylcarbonyl)amino]phenyl]furan-2-yl]-1,3-thiazol-2-yl]acetic acid] | 10000
7000 | COc1cccc(C(=O)Nc2ccc(-c3ccc(-c4csc(CC(=O)O)n4)o3)c(Cl)c2)c1 [Example 21, 2-[4-[5-[2-Chloro-4-[(3-methoxyphenylcarbonyl)amino]phenyl]furan-2-yl]-1,3-thiazol-2-yl]acetic acid] | –
– | O=C(O)Cc1nc(-c2ccc(-c3ccc(NC(=O)c4ccc(OC(F)(F)F)cc4)cc3Cl)o2)cs1 [Example 22, 2-[4-[5-[2-Chloro-4-[(4-trifluoromethoxyphenylcarbonyl)amino]phenyl]furan-2-yl]-1,3-thiazol-2-yl]acetic acid] | 500

Compound | IC50 (human heparanase) [nM] | IC50 (human endothelial cells) [nM]
2-[4-[5-[2-Chloro-4-[3-(3,5-bistrifluoromethyl)phenylacryloylamino]phenyl]furan-2-yl]-1,3-thiazol-2-yl]acetic acid [Example 7] | 400 | –
